This note sets out measurements from BindingDB's records for patent US20240018151 (Tme Therapeutics, 2024).

The target in the test is 1-phosphatidylinositol 3-phosphate 5-kinase (Homo sapiens, UniProt Q9Y2I7). The test can be described thus: ADP-GLO Kinase Assay. On the procedure:
Briefly, 4 compound solution and 4 ATP solution are prepared with assay buffer (50 mM MOPS, 1 mM DTT, pH7.2). 4 Substrate solution and 4 kinase/Metal solution are prepared with MOPS based buffer containing individual kinase specific additives. Then, […], 5 μL of 4 Substrate solution, 5 μL of 4 ATP solution, and 5 μL of 4 kinase/Metal solution are mixed and incubated in a well of polystyrene 384 well black microplate for 1 hour at room temperature. Next, 20 μL of ADP-Glo Reagent (Promega) is added to the well,and incubated for over 40 minutes. 40 μL of Kinase Detection Reagent (Promega) is added to the well, and incubated for over 40 minutes. The kinase reaction is evaluated by the endpoint luminescence of the well. For measurement of PIKFYVE activity, the substrate is PI3P at 10,000 nM concentration, using AG-182 as a positive control. The metal used is magnesium at 5 mM concentration.
In general terms: ADP-Glo first removes unused ATP, then detects ADP through luciferase.

Chain of 1-phosphatidylinositol 3-phosphate 5-kinase (Q9Y2I7 whole entry): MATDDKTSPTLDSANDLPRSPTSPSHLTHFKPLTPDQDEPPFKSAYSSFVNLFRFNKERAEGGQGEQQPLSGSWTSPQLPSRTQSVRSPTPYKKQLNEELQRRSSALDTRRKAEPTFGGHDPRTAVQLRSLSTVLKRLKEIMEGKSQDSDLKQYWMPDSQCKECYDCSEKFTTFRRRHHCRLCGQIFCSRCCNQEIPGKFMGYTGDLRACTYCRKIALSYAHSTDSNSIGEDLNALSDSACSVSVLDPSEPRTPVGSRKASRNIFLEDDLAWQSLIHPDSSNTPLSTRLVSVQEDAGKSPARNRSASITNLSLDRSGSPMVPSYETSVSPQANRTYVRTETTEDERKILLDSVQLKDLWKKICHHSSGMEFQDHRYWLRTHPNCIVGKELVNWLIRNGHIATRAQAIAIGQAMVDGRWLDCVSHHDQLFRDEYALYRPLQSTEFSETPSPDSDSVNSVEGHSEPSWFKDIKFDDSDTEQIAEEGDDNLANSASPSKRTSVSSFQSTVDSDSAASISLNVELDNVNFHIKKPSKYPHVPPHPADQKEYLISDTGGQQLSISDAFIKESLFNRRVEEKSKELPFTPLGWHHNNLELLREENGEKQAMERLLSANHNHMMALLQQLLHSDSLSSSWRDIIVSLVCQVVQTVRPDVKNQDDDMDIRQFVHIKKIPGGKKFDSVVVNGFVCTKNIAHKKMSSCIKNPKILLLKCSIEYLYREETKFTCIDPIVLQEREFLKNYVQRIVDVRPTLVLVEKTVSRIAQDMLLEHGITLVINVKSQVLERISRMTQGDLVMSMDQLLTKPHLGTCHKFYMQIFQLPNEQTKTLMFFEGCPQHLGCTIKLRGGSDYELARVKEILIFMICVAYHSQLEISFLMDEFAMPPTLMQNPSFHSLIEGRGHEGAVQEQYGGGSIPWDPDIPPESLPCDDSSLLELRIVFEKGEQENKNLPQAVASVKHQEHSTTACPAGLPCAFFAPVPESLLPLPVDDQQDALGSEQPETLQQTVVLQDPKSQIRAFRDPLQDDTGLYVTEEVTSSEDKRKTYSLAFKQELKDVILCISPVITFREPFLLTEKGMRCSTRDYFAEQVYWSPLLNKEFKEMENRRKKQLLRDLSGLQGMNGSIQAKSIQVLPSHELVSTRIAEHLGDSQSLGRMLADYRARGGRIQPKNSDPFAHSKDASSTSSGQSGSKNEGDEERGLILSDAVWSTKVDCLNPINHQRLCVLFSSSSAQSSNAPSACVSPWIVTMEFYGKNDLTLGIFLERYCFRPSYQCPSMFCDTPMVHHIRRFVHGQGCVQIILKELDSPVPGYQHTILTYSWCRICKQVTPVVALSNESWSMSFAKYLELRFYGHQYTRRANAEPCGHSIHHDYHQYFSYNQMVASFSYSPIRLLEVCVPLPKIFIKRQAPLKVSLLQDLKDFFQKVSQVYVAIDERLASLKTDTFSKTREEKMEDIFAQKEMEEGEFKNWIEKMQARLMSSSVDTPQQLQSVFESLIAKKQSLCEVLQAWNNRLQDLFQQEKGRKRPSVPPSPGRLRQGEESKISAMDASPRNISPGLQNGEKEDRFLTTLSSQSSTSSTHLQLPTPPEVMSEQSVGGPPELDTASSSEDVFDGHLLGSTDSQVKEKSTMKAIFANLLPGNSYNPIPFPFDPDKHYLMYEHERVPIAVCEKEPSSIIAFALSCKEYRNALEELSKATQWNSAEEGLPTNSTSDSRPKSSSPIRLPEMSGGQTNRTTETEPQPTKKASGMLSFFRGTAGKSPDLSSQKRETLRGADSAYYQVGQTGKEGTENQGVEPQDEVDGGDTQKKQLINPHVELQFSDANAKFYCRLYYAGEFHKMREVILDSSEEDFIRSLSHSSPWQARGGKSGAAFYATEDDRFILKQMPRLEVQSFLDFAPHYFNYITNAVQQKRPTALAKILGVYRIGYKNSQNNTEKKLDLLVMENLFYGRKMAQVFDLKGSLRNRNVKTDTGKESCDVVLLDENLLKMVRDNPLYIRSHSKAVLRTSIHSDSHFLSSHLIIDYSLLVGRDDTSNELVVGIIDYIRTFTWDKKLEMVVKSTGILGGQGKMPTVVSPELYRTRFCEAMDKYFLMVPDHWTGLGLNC

By IC50 is commonly meant the concentration that inhibits the measured activity by half. High values mean weaker potency in that assay, low ones greater potency in that assay. As to `Brc1cccc(-c2ccn(-c3cc(N4CCOCC4)n4nc(-c5ccncc5)cc4n3)n2)c1` [US20240018151, Example 3], the IC50 was below 50 nM.
